This experiment addresses PIK3CD (Human) (UniProt O00329). Put plainly: Assessment of PIK3CD Kinase Activity (Scintillation Proximity Assay). (In general: Scintillation proximity formats need no separation of bound from free tracer.)

From the Kinase Knowledgebase extract (Sharma et al. 2016) come the findings set out here.

The term IC50 denotes the concentration needed to halve the response being measured. The low end stands for greater potency in that assay, the high end for weaker potency in that assay.

Sequence of PIK3CD (Human) (O00329 whole entry, looked up): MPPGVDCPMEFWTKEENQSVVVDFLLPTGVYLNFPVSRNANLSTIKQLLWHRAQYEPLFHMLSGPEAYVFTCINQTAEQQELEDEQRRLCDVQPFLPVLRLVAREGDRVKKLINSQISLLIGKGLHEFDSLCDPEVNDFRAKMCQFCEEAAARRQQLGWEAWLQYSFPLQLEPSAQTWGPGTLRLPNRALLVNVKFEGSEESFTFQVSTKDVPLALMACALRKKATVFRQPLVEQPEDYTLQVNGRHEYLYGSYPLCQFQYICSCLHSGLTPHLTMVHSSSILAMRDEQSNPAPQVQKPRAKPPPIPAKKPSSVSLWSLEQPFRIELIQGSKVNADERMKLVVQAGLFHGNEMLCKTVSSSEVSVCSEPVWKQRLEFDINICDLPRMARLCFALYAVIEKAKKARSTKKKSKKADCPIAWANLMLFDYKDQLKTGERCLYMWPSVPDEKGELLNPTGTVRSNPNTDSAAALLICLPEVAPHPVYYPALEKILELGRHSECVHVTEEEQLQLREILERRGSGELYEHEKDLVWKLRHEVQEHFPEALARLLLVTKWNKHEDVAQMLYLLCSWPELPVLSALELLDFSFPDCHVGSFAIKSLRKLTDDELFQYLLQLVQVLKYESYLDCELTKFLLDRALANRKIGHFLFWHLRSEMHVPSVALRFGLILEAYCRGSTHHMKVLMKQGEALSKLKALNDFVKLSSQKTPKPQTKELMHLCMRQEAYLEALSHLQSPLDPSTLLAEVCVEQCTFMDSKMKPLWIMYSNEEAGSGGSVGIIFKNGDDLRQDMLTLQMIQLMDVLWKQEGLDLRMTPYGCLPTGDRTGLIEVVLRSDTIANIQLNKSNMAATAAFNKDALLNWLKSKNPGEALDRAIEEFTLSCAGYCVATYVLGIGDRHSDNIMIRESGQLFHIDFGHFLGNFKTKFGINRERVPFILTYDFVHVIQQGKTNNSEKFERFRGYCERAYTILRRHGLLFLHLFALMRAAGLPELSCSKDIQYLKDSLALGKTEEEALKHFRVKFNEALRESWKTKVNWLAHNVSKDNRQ

Consider `COc1c(C(C)n2nc(C)c3c(N)ncnc32)cc(Cl)c(C#N)c1C1CNC1` (stereo not given), for which the IC50 was ≤ 10 nM.

As to `CCOc1c(C(C)n2nc(C)c3c(N)ncnc32)cc(Cl)c(C#N)c1C1CNC(=O)C1` (stereo not given), the IC50 is ≤ 10 nM.

`CCOc1c(C(C)n2nc(C)c3c(N)ncnc32)cc(Cl)c(C)c1C1CN(CCO)C1` (stereo not given): the concentration for half-maximal inhibition (IC50) is ≤ 10 nM.

On to `COc1c(C(C)n2nc(C)c3c(N)ncnc32)cc(Cl)c(C)c1C1CN(C2(CC#N)CCC2)C1` (stereo not given), for which the IC50 is ≤ 10 nM.

As to `Cc1c(Cl)cc(C(C)n2nc(C)c3c(N)ncnc32)c(OCC2CC2)c1-c1ccc(C(=O)N(C)C)nc1` (stereo not given), the half-maximal inhibitory concentration (IC50) is ≤ 10 nM.

Take `COc1c(C(C)n2nc(C)c3c(N)ncnc32)cc(Cl)c(C)c1-c1cnn(CCO)c1` (stereo not given): the half-maximal inhibitory concentration (IC50) was ≤ 10 nM.

With `CCOc1c(C(C)n2nc(C)c3c(N)ncnc32)cc(Cl)c(C#N)c1C1CN(C(C)(C)C(=O)NC)C1` (stereo not given), the half-maximal inhibitory concentration (IC50) was ≤ 10 nM.

Consider `COc1c(C(C)n2nc(C)c3c(N)ncnc32)cc(Cl)c(C#N)c1C1CN(S(=O)(=O)C(C)C)C1` (stereo not given), for which the IC50 was ≤ 10 nM.

On to `COc1c(C(C)n2nc(C)c3c(N)ncnc32)cc(Cl)c(C#N)c1C1CN(C(C)CO)C1` (stereo not given), for which the IC50 was ≤ 10 nM.

`COc1c(C(C)n2nc(C)c3c(N)ncnc32)cc(Cl)c(C)c1C1CN([C@H](C)C(=O)N(C)C)C1` (stereo not given in full): the IC50 was ≤ 10 nM.

Regarding `CCOc1c(C(C)n2nc(C)c3c(N)ncnc32)cc(Cl)c(C#N)c1C1CN(CC(F)(F)F)C1` (stereo not given), the IC50 was ≤ 10 nM.

The compound `CCOc1c(C(C)n2nc(-c3ccc(F)cc3)c3c(N)ncnc32)cc(Cl)c(C)c1-c1ccc(C(=O)N(C)C)nc1` (stereo not given) returned a half-maximal inhibitory concentration (IC50) of 10 to 50 nM.

On to `COc1c(C(C)n2nc(C)c3c(N)ncnc32)cc(Cl)c(C)c1C1CN(C(=O)c2cnn(C)c2)C1` (stereo not given), for which the IC50 was ≤ 10 nM.

As to `CCOc1c(C(C)n2nc(C)c3c(N)ncnc32)cc(Cl)c(C#N)c1C1CN(CCO)C1` (stereo not given), the half-inhibitory concentration (IC50) is ≤ 10 nM.

With `CNC(=O)c1ccc(-c2c(C)c(Cl)cc(C(C)n3ccc(=O)c4c(N)ncnc43)c2OC)cn1` (stereo not given), the IC50 was ≤ 10 nM.

With `CCOc1c(C(C)n2nc(C)c3c(N)ncnc32)cc(Cl)c(C)c1-c1ccnc(C(=O)N(C)CCO)c1` (stereo not given), the 50% inhibitory concentration (IC50) was ≤ 10 nM.

For the compound `COc1c(C(C)n2nc(C)c3c(N)ncnc32)cc(Cl)c(C#N)c1C1CN(C(=O)OC(C)C)C1` (stereo not given), the IC50 is ≤ 10 nM.

With `CCNC(=O)N1CC(c2c(C#N)c(Cl)cc(C(C)n3nc(C)c4c(N)ncnc43)c2OCC)C1` (stereo not given), the IC50 is ≤ 10 nM.

Consider `COc1c(C(C)n2nc(C)c3c(N)ncnc32)cc(Cl)c(Cl)c1C1CN(CCO)C1` (stereo not given), for which the IC50 was ≤ 10 nM.

For the compound `CCOc1c(C(C)n2nc(-c3cncc(C(=O)N(C)C)c3)c3c(N)ncnc32)cc(Cl)c(C)c1-c1ccc(C(=O)N(C)C)nc1` (stereo not given), the IC50 is ≤ 10 nM.

As to `COc1c(C(C)n2nc(C)c3c(N)ncnc32)cc(Cl)c(C)c1C1CN(CC(O)C(F)(F)F)C1` (stereo not given), the concentration for half-maximal inhibition (IC50) was ≤ 10 nM.

On to `COc1c(C(C)n2nc(C)c3c(N)ncnc32)cc(Cl)c(Cl)c1C1CN(CC#N)C1` (stereo not given), for which the IC50 is ≤ 10 nM.

As to `CCOc1c(C(C)n2nc(C)c3c(N)ncnc32)cc(Cl)c(F)c1C1CN(C[C@H](C)O)C1` (stereo not given in full), the IC50 was ≤ 10 nM.

With `CCOc1c(C(C)n2nc(C)c3c(N)ncnc32)cc(Cl)c(C)c1-c1cnn(CC(=O)NC)c1` (stereo not given), the IC50 is ≤ 10 nM.

On to `CCOc1c(C(C)n2nc(C(F)F)c3c(N)ncnc32)cc(Cl)c(F)c1C1CN(C[C@@H](C)O)C1` (stereo not given in full), for which the half-maximal inhibitory concentration (IC50) was ≤ 10 nM.

Regarding `CCOc1c(C(C)n2nc(I)c3c(N)ncnc32)cc(Cl)c(C)c1-c1ccc(C(=O)N(C)C)nc1` (stereo not given), the concentration for half-maximal inhibition (IC50) was ≤ 10 nM.

On to `COc1c(C(C)n2ccc(=O)c3c(N)ncnc32)cc(Cl)c(C)c1-c1cccc(C(=O)N(C)C)c1` (stereo not given), for which the 50% inhibitory concentration (IC50) was ≤ 10 nM.

Consider `CNC(=O)c1cc(-c2c(C)c(Cl)cc(C(C)n3nc(C)c4c(N)ncnc43)c2OC)ccn1` (stereo not given), for which the half-inhibitory concentration (IC50) was ≤ 10 nM.

As for `CCOc1c(C(C)n2nc(C)c3c(N)ncnc32)cc(Cl)c(C#N)c1C1CN(C(COC)COC)C1` (stereo not given), the concentration for half-maximal inhibition (IC50) was ≤ 10 nM.

In the case of `CCOc1c(C(C)n2nc(C)c3c(N)ncnc32)cc(Cl)c(C#N)c1C1CN(C(=O)C2CC2)C1` (stereo not given), the half-maximal inhibitory concentration (IC50) is ≤ 10 nM.

`COc1c(C(C)n2nc(C)c3c(N)ncnc32)cc(Cl)c(C)c1-c1ccc(NCCO)nc1` (stereo not given): the half-maximal inhibitory concentration (IC50) is ≤ 10 nM.

For `COc1c(C(C)n2nc(C)c3c(N)ncnc32)cc(Cl)c(C#N)c1C1CN(C(=O)NC(C)(C)C)C1` (stereo not given), the IC50 was ≤ 10 nM.

`CCOc1c(C(C)n2nc(C)c3c(N)ncnc32)cc(Cl)c(C#N)c1C1CN(C[C@H](C)O)C1` (stereo not given in full): the IC50 was ≤ 10 nM.

Turning to `COc1c(C(C)n2ncc3c(N)ncnc32)cc(Cl)c(C)c1-c1ccnc(C(=O)N(C)C)c1` (stereo not given), the concentration for half-maximal inhibition (IC50) was in the range of 10 to 50 nM.

Take `COc1c(C(C)n2nc(C)c3c(N)ncnc32)cc(Cl)c(C)c1C1CNC(=O)O1` (stereo not given): the IC50 is ≤ 10 nM.

`CCOc1c(C(C)n2nc(C)c3c(N)ncnc32)cc(Cl)c(C)c1C1CN(C(=O)[C@@H](C)O)C1` (stereo not given in full): the half-maximal inhibitory concentration (IC50) was ≤ 10 nM.

Turning to `COc1c(C(C)n2nc(C)c3c(N)ncnc32)cc(Cl)c(C)c1-c1cncc(C(=O)N(C)C2CC2)c1` (stereo not given), the IC50 is ≤ 10 nM.

With `COc1c(C(C)n2nc(C)c3c(N)ncnc32)cc(Cl)c(F)c1C1CN(CC(C)(C)O)C1` (stereo not given), the IC50 was ≤ 10 nM.

In turn, `COc1c(C(C)n2nc(C)c3c(N)ncnc32)cc(Cl)c(C)c1C1CC1` (stereo not given) registered a half-inhibitory concentration (IC50) of 10 to 50 nM.

With `COc1c(C(C)n2nc(C)c3c(N)ncnc32)cc(Cl)c(C)c1C1CN(C)C1` (stereo not given), the half-inhibitory concentration (IC50) was ≤ 10 nM.
